Source: patent US7902361B2, “Pyrimidin-4-yl-3, 4-thione compounds and their use in therapy” (Cyclacel Limited, priority 2003, dated 2011)

Key:
Assay type in all cases: biochemical
aurora A = target: T1, aurora A (Homo sapiens, UniProt O14965); experiment: Kinase assay aurora A; details: Ki calculated (Cheng-Prusoff) from experimentally determined IC50 and Km,ATP; read-out: Kinase Inhibition Ki Aurora A
T1 sequence (O14965 1-403): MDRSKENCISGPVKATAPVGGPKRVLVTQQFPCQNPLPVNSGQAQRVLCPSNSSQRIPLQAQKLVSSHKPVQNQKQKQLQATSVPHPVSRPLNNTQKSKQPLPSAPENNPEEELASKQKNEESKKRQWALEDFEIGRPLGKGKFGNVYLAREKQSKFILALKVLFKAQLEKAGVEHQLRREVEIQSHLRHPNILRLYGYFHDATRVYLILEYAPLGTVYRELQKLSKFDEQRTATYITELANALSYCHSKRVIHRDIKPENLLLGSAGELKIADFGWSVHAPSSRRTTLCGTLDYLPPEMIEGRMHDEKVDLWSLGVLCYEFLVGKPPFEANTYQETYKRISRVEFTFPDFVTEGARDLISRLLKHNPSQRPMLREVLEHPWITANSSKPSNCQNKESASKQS
Procedure: (§1) The compounds from the examples above were investigated for their ability to inhibit the enzymatic activity of various protein kinases. This was achieved by measurement of incorporation of radioactive phosphate from ATP into appropriate polypeptide substrates. Recombinant protein kinases and kinase complexes were produced or obtained commercially. Assays were performed using 96-well plates and appropriate assay buffers (typically 25 mM β-glycerophosphate, 20 mM MOPS, 5 mM EGTA, 1 mM DTT, 1 mM […], pH 7.4), into which were added 2-4 μg of active enzyme with appropriate substrates. […] Reactions were stopped on ice, followed by filtration through p81 filterplates or GF/C filterplates (Whatman Polyfiltronics, Kent, UK). After washing 3 times with 75 mM aq orthophosphoric acid, plates were dried, scintillant added and incorporated radioactivity measured in a scintillation counter (TopCount, Packard Instruments, Pangbourne, Berks, UK). Compounds for kinase assay were made up as 10 mM stocks in DMSO and diluted into 10% DMSO in assay buffer.

GSK3β = target: T2, GSK3β (Homo sapiens, UniProt P49841); experiment: GSK3β in vitro kinase assay; details: recombinant human GSK3β, 100 μM ATP
T2 construct: purchased New England Biolabs
T2 sequence (P49841 whole entry): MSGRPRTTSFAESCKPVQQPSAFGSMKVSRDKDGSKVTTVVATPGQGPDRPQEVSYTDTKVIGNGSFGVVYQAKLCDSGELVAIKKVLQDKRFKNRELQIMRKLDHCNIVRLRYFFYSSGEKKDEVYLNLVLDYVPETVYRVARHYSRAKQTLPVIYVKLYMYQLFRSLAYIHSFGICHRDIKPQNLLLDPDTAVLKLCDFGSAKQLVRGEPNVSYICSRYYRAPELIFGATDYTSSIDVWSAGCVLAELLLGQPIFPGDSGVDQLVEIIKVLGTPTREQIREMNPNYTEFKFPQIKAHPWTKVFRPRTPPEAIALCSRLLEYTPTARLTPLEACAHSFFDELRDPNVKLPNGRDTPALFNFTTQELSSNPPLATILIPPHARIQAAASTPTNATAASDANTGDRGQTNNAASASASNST
Procedure: Both isoforms of GSK3 (α and β) are involved in the regulation of glycogen synthase activity—key enzyme in the glycogen metabolism.
A 10-point titration was set up to determine the IC50 values of selected example compounds against GSK3β. Assays were performed using 96-well microtiter plates with a final volume of 25 μL per well. Each assay contained 1.5 units of GSK3β(New England Biolabs), 200 μM CREB phosphopeptide ([…]pSYR, Alta Biosciences), 20 mM Tris HCl pH7.5, 5 mM DTT, 15 mM MgCl2 supplemented with 100 μM ATP and 0.5 μCi of [γ-^32P] ATP plus or minus inhibitor in 2% DMSO. Assays were carried out for 30 minutes at 30° C. before stopping the reaction by the addition of an equal volume of 75 mM aqueous phosphoric acid. Samples were then spotted onto a p81 filterplate (Whatman) and a vacuum was applied. Wells were washed 3 times with 200 μL of dilute aqueous phosphoric acid before the addition of 50 μL Microscint 40 per well. Incorporation of radioactivity was determined on a Topcount microplate scintillation counter (Packard).

CDK1/cyclin B = CDK1/cyclin B (Homo sapiens, UniProt P06493); experiment: Kinase assay CDK1/cyclin B (radioactive phosphate incorporation); details: Ki calculated (Cheng-Prusoff) from experimentally determined IC50 and Km,ATP; read-out: Kinase Inhibition Ki CDK1 - cyclin B
CDK1/cyclin B, sequence (P06493 whole entry, species assumed): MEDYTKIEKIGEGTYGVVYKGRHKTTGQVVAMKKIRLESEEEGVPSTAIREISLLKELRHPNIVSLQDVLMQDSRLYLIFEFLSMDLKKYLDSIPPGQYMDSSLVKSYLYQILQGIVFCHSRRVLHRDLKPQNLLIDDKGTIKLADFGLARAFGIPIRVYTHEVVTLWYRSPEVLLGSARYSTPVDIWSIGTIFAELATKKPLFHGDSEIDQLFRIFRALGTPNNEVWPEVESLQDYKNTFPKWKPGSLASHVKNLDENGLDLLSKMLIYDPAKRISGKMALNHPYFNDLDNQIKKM
CDK1/cyclin B, sequence (P14635 whole entry partner, species assumed): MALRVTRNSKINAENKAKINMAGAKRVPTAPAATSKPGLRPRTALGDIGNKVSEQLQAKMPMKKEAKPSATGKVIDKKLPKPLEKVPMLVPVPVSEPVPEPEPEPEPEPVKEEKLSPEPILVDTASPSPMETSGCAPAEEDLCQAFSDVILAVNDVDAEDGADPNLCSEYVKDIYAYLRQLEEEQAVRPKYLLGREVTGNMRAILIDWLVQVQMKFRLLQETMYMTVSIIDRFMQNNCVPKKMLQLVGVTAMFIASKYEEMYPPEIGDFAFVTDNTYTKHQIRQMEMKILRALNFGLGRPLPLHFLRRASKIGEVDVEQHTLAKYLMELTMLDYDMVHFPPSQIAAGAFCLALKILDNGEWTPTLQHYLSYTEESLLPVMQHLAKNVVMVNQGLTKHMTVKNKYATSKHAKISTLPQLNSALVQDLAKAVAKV
Procedure: as §1

CDK2/cyclin E = CDK2/cyclin E (Homo sapiens, UniProt P24941); experiment: Kinase assay CDK2/cyclin E; details: Ki calculated (Cheng-Prusoff) from experimentally determined IC50 and Km,ATP; read-out: Kinase Inhibition Ki CDK2 - cyclin E
Procedure: as §1

CDK2/cyclin A = CDK2/cyclin A (Homo sapiens, UniProt P24941); experiment: Kinase assay CDK2/cyclin A; details: Ki calculated (Cheng-Prusoff) from experimentally determined IC50 and Km,ATP; read-out: Kinase Inhibition Ki CDK2 - cyclin A
Procedure: as §1

CDK4/cyclin D1 = CDK4/cyclin D1 (Homo sapiens, UniProt P11802); experiment: Kinase assay CDK4/cyclin D1; details: Ki calculated (Cheng-Prusoff) from experimentally determined IC50 and Km,ATP; read-out: Kinase Inhibition Ki CDK4 - cyclin D1
CDK4/cyclin D1, sequence (P11802 whole entry, species assumed): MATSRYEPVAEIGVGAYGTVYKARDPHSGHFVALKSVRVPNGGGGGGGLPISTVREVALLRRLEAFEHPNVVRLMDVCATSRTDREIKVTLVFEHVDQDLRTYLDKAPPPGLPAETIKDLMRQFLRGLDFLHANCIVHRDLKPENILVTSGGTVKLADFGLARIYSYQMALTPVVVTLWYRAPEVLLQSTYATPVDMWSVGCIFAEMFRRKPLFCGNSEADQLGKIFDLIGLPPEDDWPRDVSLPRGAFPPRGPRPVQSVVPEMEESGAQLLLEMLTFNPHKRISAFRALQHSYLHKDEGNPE
CDK4/cyclin D1, sequence (P24385 whole entry partner, species assumed): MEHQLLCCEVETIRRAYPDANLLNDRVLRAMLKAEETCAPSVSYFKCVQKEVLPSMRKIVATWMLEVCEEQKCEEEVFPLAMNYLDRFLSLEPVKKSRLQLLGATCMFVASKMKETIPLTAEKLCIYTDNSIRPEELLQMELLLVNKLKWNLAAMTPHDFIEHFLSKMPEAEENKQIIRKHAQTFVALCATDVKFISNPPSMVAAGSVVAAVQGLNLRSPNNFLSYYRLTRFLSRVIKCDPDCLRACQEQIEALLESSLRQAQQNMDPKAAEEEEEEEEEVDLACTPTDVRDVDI
Procedure: (§2) The compounds from the examples above were investigated for their ability to inhibit the enzymatic activity of various protein kinases. This was achieved by measurement of incorporation of radioactive phosphate from ATP into appropriate polypeptide substrates. Recombinant protein kinases and kinase complexes were produced or obtained commercially. Assays were performed using 96-well plates and appropriate assay buffers (typically 25 mM β-glycerophosphate, 20 mM MOPS, 5 mM EGTA, 1 mM DTT, 1 mM […], pH 7.4), into which were added 2-4 μg of active enzyme with appropriate substrates. The reactions were initiated by addition of Mg/ATP mix (15 mM MgCl2+100 μM ATP with 30-50 kBq per well of [γ-^32P]-ATP) and mixtures incubated as required at 30° C. Reactions were stopped on ice, followed by filtration through p81 filterplates or GF/C filterplates (Whatman Polyfiltronics, Kent, UK). After washing 3 times with 75 mM aq orthophosphoric acid, plates were dried, scintillant added and incorporated radioactivity measured in a scintillation counter (TopCount, Packard Instruments, Pangbourne, Berks, UK). Compounds for kinase assay were made up as 10 mM stocks in DMSO and diluted into 10% DMSO in assay buffer.

CDK7/cyclin H = CDK7/cyclin H (Homo sapiens, UniProt P50613); experiment: Kinase assay CDK7/cyclin H; details: Ki calculated (Cheng-Prusoff) from experimentally determined IC50 and Km,ATP; read-out: Kinase Inhibition Ki CDK7 - cyclin H
CDK7/cyclin H, sequence (P50613 whole entry, species assumed): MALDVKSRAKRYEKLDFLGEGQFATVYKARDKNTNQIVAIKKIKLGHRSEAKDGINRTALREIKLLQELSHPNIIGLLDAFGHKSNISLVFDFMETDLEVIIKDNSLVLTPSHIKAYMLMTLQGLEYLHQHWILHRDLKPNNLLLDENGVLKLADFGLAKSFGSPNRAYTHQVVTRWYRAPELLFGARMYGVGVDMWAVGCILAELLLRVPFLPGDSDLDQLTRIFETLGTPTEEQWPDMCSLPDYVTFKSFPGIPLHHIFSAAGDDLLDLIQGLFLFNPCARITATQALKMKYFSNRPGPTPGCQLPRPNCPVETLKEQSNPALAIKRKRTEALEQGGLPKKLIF
CDK7/cyclin H, sequence (P51946 whole entry partner, species assumed): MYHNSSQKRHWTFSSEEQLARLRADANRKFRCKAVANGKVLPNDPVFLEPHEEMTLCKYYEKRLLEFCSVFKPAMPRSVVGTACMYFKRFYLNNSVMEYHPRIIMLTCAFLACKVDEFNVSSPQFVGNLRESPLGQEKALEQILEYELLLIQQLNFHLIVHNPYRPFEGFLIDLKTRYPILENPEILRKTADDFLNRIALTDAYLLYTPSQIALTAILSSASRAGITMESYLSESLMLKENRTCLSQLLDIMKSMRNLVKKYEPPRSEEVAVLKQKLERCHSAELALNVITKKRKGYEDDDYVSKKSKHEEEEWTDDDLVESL
Procedure: as §2

CDK9/cyclin T1 = CDK9/cyclin T1 (Homo sapiens, UniProt P50750); experiment: Kinase assay CDK9/cyclin T1; details: Ki calculated (Cheng-Prusoff) from experimentally determined IC50 and Km,ATP; read-out: Kinase Inhibition Ki CDK9 - cyclin T1
CDK9/cyclin T1, sequence (P50750 whole entry, species assumed): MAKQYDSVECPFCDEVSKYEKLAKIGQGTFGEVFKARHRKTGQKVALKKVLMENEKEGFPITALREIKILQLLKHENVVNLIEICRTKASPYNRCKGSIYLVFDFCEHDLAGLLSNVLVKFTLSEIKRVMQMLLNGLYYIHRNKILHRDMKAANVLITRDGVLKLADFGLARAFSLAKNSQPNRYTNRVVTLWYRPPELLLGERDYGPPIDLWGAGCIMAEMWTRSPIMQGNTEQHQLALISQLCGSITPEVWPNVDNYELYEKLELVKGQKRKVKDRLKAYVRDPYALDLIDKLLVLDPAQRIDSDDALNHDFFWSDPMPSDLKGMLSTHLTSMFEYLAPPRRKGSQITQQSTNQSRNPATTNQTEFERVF
CDK9/cyclin T1, sequence (O60563 whole entry partner, species assumed): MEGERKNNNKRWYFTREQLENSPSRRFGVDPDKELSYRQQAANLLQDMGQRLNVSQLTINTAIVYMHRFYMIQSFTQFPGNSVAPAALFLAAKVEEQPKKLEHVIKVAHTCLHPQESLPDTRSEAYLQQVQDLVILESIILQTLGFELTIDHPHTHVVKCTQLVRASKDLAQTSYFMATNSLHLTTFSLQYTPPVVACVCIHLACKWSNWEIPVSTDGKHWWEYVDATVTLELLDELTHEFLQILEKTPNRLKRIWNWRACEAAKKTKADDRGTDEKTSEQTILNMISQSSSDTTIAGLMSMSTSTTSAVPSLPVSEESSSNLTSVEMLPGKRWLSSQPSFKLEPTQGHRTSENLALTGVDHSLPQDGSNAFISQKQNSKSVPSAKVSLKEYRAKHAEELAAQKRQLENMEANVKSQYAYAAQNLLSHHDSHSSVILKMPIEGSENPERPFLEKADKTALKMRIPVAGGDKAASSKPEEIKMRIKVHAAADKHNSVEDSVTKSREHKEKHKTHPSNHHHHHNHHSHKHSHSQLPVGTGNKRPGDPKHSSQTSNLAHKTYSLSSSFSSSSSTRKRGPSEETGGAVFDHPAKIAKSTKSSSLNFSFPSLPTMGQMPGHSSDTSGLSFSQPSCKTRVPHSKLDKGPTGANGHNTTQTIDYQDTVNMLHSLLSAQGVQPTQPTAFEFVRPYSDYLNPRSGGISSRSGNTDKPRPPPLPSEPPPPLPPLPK
Procedure: as §2

| Ki (aurora A) | IC50 (GSK3β) | Ki (CDK1/cyclin B) | Ki (CDK2/cyclin E) | Ki (CDK2/cyclin A) | Ki (CDK4/cyclin D1) | Ki (CDK7/cyclin H) | Ki (CDK9/cyclin T1) | Structure (SMILES) |
| --- | --- | --- | --- | --- | --- | --- | --- | --- |
| 63 nM | 28.1 nM |  |  |  |  |  |  | Cc1c(-c2ccnc(Nc3ccc(CNC(=O)c4ccccn4)cc3)n2)sc(=O)n1C [Compound 82, Pyridine-2-carboxylic acid 4-[4-(3,4-dimethyl-2-oxo-2,3-dihydro-thiazol-5-yl)-pyrimidin-2-ylamino]-benzylamide] |
|  |  | 64 nM | 98 nM | 8.6 nM | 150 nM | 600 nM | 14 nM | Cc1ccc(Nc2nccc(-c3sc(=O)n(C)c3C)n2)cc1N [Compound 39, 5-[2-(3-Amino-4-methyl-phenylamino)-pyrimidin-4-yl]-3,4-dimethyl-3H-thiazol-2-one] |
|  |  | 750 nM | 750 nM | 200 nM | 530 nM | 860 nM | 41 nM | Cc1c(-c2ccnc(Nc3ccc(N(C)C)cc3)n2)sc(=O)n1C [Compound 8, 5-[2-(4-Dimethylamino-phenylamino)-pyrimidin-4-yl]-3,4-dimethyl-3H-thiazol-2-one] |
|  | 542 nM | 2100 nM | 270 nM |  |  | 970 nM | 190 nM | CCn1c(C)c(-c2ccnc(Nc3ccc(Cl)c(C)c3)n2)sc1=O [Compound 51, 5-[2-(4-Chloro-3-methyl-phenylamino)-pyrimidin-4-yl]-3-ethyl-4-methyl-3H-thiazol-2-one] |
| 25 nM |  | 730 nM | 77 nM | 160 nM | 1200 nM | 70 nM | 16 nM | CCn1c(C)c(-c2ccnc(Nc3ccc([N+](=O)[O-])cc3)n2)sc1=O [Compound 52, 3-Ethyl-4-methyl-5-[2-(4-nitro-phenylamino)-pyrimidin-4-yl]-3H-thiazol-2-one] |
|  |  | 670 nM | 290 nM | 560 nM | 21000 nM | 31 nM | 190 nM | Cc1c(-c2ccnc(Nc3cccc([N+](=O)[O-])c3)n2)sc(=O)n1CCC(C)C [Compound 30, 4-Methyl-3-(3-methyl-butyl)-5-[2-(3-nitro-phenylamino)-pyrimidin-4-yl]-3H-thiazol-2-one] |
|  | 158 nM |  |  |  |  |  |  | CCn1c(C)c(-c2ccnc(Nc3cccc(S(=O)(=O)O)c3)n2)sc1=O [Compound 54, 3-[4-(3-Ethyl-4-methyl-2-oxo-2,3-dihydro-thiazol-5-yl)-pyrimidin-2-ylamino]-benzenesulfonic acid] |
|  |  | 49 nM | 12 nM | 23 nM | 130 nM | 290 nM | 8.9 nM | Cc1ccc(Nc2nccc(-c3sc(=O)[nH]c3C)n2)cc1[N+](=O)[O-] [Compound 41, 4-Methyl-5-[2-(4-methyl-3-nitro-phenylamino)-pyrimidin-4-yl]-3H-thiazol-2-one] |
|  | 61.9 nM |  |  |  |  |  | 230 nM | CCn1c(C)c(-c2ccnc(Nc3ccc(Cl)c(C(F)(F)F)c3)n2)sc1=O [Compound 48, 5-[2-(4-Chloro-3-trifluoromethyl-phenylamino)-pyrimidin-4-yl]-3-ethyl-4-methyl-3H-thiazol-2-one] |
| 110 nM |  | 82 nM | 53 nM | 0.5 nM | 1300 nM | 1.9 nM | 7.2 nM | Cc1c(-c2ccnc(Nc3ccc(N(C)C)c([N+](=O)[O-])c3)n2)sc(=O)n1C [Compound 22, 5-[2-(4-Dimethylamino-3-nitro-phenylamino)-pyrimidin-4-yl]-3,4-dimethyl-3H-thiazol-2-one] |
|  |  | 7000 nM | 290 nM | 150 nM | 280 nM | 220 nM | 690 nM | CCn1c(C)c(-c2ccnc(Nc3ccc(N(C)C)cc3)n2)sc1=O [Compound 26, 5-[2-(4-Dimethylamino-phenylamino)-pyrimidin-4-yl]-3-ethyl-4-methyl-3H-thiazol-2-one] |
|  | 38.5 nM | 580 nM | 34 nM | 220 nM | 770 nM | 380 nM | 19 nM | CC(=O)NCc1cccc(Nc2nccc(-c3sc(=O)n(C)c3C)n2)c1 [Compound 42, N-{3-[4-(3,4-Dimethyl-2-oxo-2,3-dihydro-thiazol-5-yl)-pyrimidin-2-ylamino]-benzyl}-acetamide] |
| 700 nM |  | 1000 nM | 10 nM | 170 nM | 300 nM | 2.8 nM | 0.3 nM | Cc1c(-c2ccnc(Nc3cccc([N+](=O)[O-])c3)n2)sc(=O)n1C [Compound 1, 3,4-Dimethyl-5-[2-(3-nitro-phenylamino)-pyrimidin-4-yl]-3H-thiazol-2-one] |
| 33 nM |  |  | 500 nM | 2000 nM | 3300 nM | 1600 nM | 690 nM | CCn1c(C)c(-c2ccnc(Nc3ccc(N4CCOCC4)cc3)n2)sc1=O [Compound 27, 3-Ethyl-4-methyl-5-[2-(4-morpholin-4-yl-phenylamino)-pyrimidin-4-yl]-3H-thiazol-2-one] |
|  | 43.5 nM |  | 180 nM | 590 nM |  |  |  | CCn1c(C)c(-c2ccnc(Nc3ccc(S(=O)(=O)O)cc3)n2)sc1=O [Compound 53, 4-[4-(3-Ethyl-4-methyl-2-oxo-2,3-dihydro-thiazol-5-yl)-pyrimidin-2-ylamino]-benzenesulfonic acid] |
|  |  | 17 nM | 3.2 nM | 11 nM | 230 nM | 71 nM | 2.4 nM | Cc1[nH]c(=O)sc1-c1ccnc(Nc2cccc([N+](=O)[O-])c2)n1 [Compound 40, 4-Methyl-5-[2-(3-nitro-phenylamino)-pyrimidin-4-yl]-3H-thiazol-2-one] |
|  | 66.5 nM | 1100 nM | 80 nM | 650 nM |  |  | 380 nM | Cc1c(-c2ccnc(Nc3ccc(S(=O)(=O)NCc4ccccc4)cc3)n2)sc(=O)n1C [Compound 73, N-Benzyl-4-[4-(3,4-dimethyl-2-oxo-2,3-dihydro-thiazol-5-yl)-pyrimidin-2-ylamino]-benzenesulfonamide] |
|  | 41.5 nM |  | 2 nM |  | 130 nM | 19 nM |  | CCn1c(C)c(-c2ccnc(Nc3cccc(O)c3)n2)sc1=O [Compound 43, 3-Ethyl-5-[2-(3-hydroxy-phenylamino)-pyrimidin-4-yl]-4-methyl-3H-thiazol-2-one] |
